Data from PMC5766581, “NF-κB inducing kinase is a therapeutic target for systemic lupus erythematosus” (Nature Communications, 2018).
pIC50: −log10 of the molar value.

Experiments:
[1] = system: IL-12p40 production from human monocyte derived DC; test: CD40L induced IL-12p40 production from human DCs; type: cell-based
Experimental: Human monocytes were enriched from whole blood (Monocyte enrichment RosetteSep, Stem Cell) followed by isolation using Monocyte Isolation Kit II (Miltenyi). Isolated monocytes were cultured (RPMI-10% FBS, penicillin/streptomycin, glutamine) with rhGM-CSF (100 ng/mL) and rhIL-4 (6.5 ng/mL) (R&D Systems) for 5 days with GM-CSF replacement on day 3. On Day 5 immature monocyte derived DCs were monitored for differentiation by flow cytometry ([…], CD83^low CD86^low CD209^+/hi). […] After 24 h plates were centrifuged and supernatants were removed for IL-12p40 cytokine measurement by ELISA (BD Biosciences). Plots and IC50 measurements were generated using GraphPad Prism software.

[2] = system: nuclear RelA (canonical NF-κB signaling); test: High content nuclear RelA imaging, TNF-stimulated HeLa cells; type: cell-based, human
Experimental: The HeLa cell line was used to define the cellular selectivity of NIK inhibitors toward inhibition of classical vs. non-classical NF-κB signaling using high content cellular imaging assays. For the nuclear translocation assay p52 (non-canonical NF-κB signaling), HeLa cells were treated with different concentrations of compounds previously diluted in DMSO (final [DMSO] = 0.2% in all wells) in DMEM medium (10% FBS, 2 mM Glutamine) and then stimulated with 300 ng/mL of an anti-lymphotoxin beta receptor antibody for 4.5 h. In the REL-A nuclear translocation assay, HeLa cells were incubated with compounds for 4 h 50 min before stimulating them with 2 ng/mL TNF (R&D Systems) for 10 min. Cells were fixed with 4% paraformaldehyde, permeabilized by adding 0.1% Triton X-100 in phosphate buffered saline, and then are incubated with either 2 μg/mL anti-p52 antibody or 400 ng/mL anti-REL-A (p65) antibody. Finally, the cells are incubated with an Alexa488-labeled secondary antibody (Invitrogen) and DRAQ5 DNA stain (Biostatus). Imaging was carried out using an Opera reader (Perkin Elmer) and data were analyzed with Acapella software (Perkin Elmer). The p52 or REL-A translocation into the nucleus is quantified by the ratio of the nuclear to cytoplasmic signal intensity.

[3] = system: TWEAK inducible genes in murine RPTEC; test: TWEAK-induced NIK-dependent gene expression in RPTECs (RNASeq); type: cell-based, mouse; conditions: 3 μM
Experimental: Total RNA was extracted using Qiagen RNeasy kit as per manufacturer’s protocol including the on-column DNase digestion. Quality control of samples was done to determine RNA quantity and quality prior to their processing by RNA-seq. The concentration of RNA samples was determined using NanoDrop 8000 (Thermo Scientific) and the integrity of RNA was determined by Fragment Analyzer (Advanced Analytical). 0.5 ug of total RNA was used as an input material for library preparation using TruSeq RNA Sample Preparation Kit v2 (Illumina). Size of the libraries was confirmed using 2200 TapeStation and High Sensitivity D1K screen tape (Agilent Technologies) and their concentration was determined by qPCR based method using Library quantification kit (KAPA). The libraries were multiplexed and then sequenced on Illumina HiSeq2500 (Illumina) to generate 30 M of single end 50 base pair reads. […] Raw RNA sequencing reads were processed using the HTSeqGenie Bioconductor package. Reads were aligned to the reference mouse genome sequence (National Center for Biotechnology Information build 37) using the Genomic Short-Read Nucleotide Alignment Program algorithm. Uniquely aligned read pairs that fell within exons were counted to estimate individual gene expression levels. For inclusion, genes were required to have >10 reads in at least four samples. […] Data were analyzed and plotted using Expression Plot[72].

[4] = system: IL-12p40 production from mouse splenic DC; test: anti-CD40-induced IL-12p40 production from splenic DCs; type: cell-based; conditions: WT mouse splenic DC (not in NIK-deficient); 3 µM or 1 µM, 18 hrs
Experimental: Supplementary Figure 2. NIK inhibition of IL-12p40 production from splenic DCs Splenic DCs (B220- CD11c +) were sorted from Nik WT/WT,CD11c-CRE + and Nik fl/fl, CD11c- […]
µM) for 18 hrs. IL-12p40 production was measured by ELISA. Data represented as mean ± standard deviation of 3 biological replicates. One-way ANOVA with Tukey’s test for multiple comparisons. *p<0.05, **p<0.01, ***p<0.001; ****p<0.0001; ns, not significant.

[5] = system: p52 processing in murine B cells; test: p52 processing western blot in B cells; type: cell-based; conditions: mouse B cells
Experimental: (§1) p52/p100 and β-actin were monitored by western blot as described previously. Briefly, p52 processing was detected after 6 or 18 h of stimulation. Mouse and human RPTEC cells were stimulated with recombinant mouse or human TWEAK (100 ng/mL, R&D Systems). Primary B cells were isolated by negative selection (Miltenyi) from either mouse spleen or human whole blood. Human primary B cells were stimulated with either rhCD40L (10 μg/mL) or rhBAFF (400 ng/mL) (R&D Systems). Mouse primary B cells were stimulated with either anti-CD40 (10 μg/mL, BD Biosciences) or rmBAFF (400 ng/mL). After 6 or 18 h, whole cell extracts were generated using RIPA buffer (with protease and phosphatase inhibition), and approximately 10 μg of total protein was monitored for p52/p100 and β-Actin by western blot. HeLa cells (ATCC) were stimulated for 8 h with anti-LTβR agonist antibody and cytoplasmic and nuclear extracts were generated using kits purchase from Thermo Scientific and approximately […] of each extract was monitored for p52/p100, phospho-RelA, RelA, or β-Actin, Histone H3, or Lamin B1 controls. Uncropped western blots, as required by journal policies, are provided in Supplementary Fig. 13 and 14.

[6] = system: p52 processing in human B cells; test: p52 processing western blot in B cells; type: cell-based
Experimental: as §1

CDK5/p25 = molecular target: T1, CDK5/p25 (Homo sapiens, UniProt Q00535); test: SelectScreen kinase panel; type: biochemical
T1 construct: purchased Invitrogen / ThermoFisher SelectScreen

[7] = In vivo studies in mice: PK, target coverage, tolerability; parameters: species or system mouse

T1 sequence (Q00535 whole entry): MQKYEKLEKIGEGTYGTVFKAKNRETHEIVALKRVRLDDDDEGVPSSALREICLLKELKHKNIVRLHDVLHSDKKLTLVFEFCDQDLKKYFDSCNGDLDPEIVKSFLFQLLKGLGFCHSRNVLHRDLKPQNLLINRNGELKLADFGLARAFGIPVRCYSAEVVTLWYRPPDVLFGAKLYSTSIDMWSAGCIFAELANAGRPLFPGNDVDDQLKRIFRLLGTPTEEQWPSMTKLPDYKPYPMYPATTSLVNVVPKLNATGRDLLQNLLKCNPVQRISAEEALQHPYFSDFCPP
T1 sequence (Q15078 99-307 partner limits assumed): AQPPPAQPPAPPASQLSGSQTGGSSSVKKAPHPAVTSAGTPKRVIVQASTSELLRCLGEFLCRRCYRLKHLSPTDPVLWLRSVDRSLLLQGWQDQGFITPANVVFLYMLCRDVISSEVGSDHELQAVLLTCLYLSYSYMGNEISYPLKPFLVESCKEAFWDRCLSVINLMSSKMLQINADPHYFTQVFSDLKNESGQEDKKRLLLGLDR

## COc1cc(C(N)=O)nc(-c2cccc(C#C[C@]3(O)CCN(C)C3=O)c2)c1 [NIK SMI1]
[1]; dendritic cells
  CD40L-induced IL-12p40 production: nearly completely inhibited
[1]; human monocyte derived DC, rhCD40L, mean ± SD, read-out: CD40-induced IL-12 p40 IC50
  pIC50: 7.02
[2]
  effect on canonical signaling as measured by TNF alpha-induced nuclear relA levels: no effect
[2]; Homo sapiens, TNF induced
  pIC50: < 5.70
[3]; 6 and 24 h, RNASeq
  TWEAK inducible gene expression: majority of TWEAK inducible genes were inhibited
[3]; RPTEC in vitro
  genes induced by TWEAK and repressed by NIK SMI1: 179 genes
[4]
  anti-CD40-induced IL-12p40 production: reduced
[5]
  BAFF-induced and CD40-induced p52 processing: significantly inhibited
[6]
  BAFF-induced and CD40-induced p52 processing: significantly inhibited
CDK5/p25
  inhibition at 1 µM: 2.5%
[7]; 180 mg/kg, no formal toxicity assessment
  adverse effect not explained by on-target pharmacology: never observed any adverse effect
[7]; doses used in vivo
  coverage of NIK activity in vivo: 70–90%
[7]; mouse, in vivo
  PK properties: excellent
